Assay results from article PMC7662321, “Andrographolide and Its 14-Aryloxy Analogues Inhibit Zika and Dengue Virus Infection” (Molecules, 2020).

Key:
[1] = system: HSPA1A; assay: Western blot of HSPA1A expression in treated A549 cells; assay type: cell-based, human; details: A549, 25 µM, 24 h, normalized to GAPDH
Protocol: To confirm the 2D-gel analysis results, HSPA1A and PGK1 were selected for the validation by Western blot. The same three experimental conditions were established, namely A549 cells treated with vehicle (0.025% DMSO), 25 μM andrographolide or 25 μM ZAD-1. Glyceraldehyde-3-phosphate dehydrogenase (GAPDH) was used as a loading control and the proteins were normalized to this protein. […] While the difference in HSPA1A expression between andrographolide treatment and ZAD-1 treatment is consistent with the spot intensity data (Table 3), the spot density for the control DMSO treatment is not consistent with the western blot result.
A total of 40 µg of proteins were separated by electrophoresis through a 12% sodium dodecyl sulfate (SDS) polyacrylamide gel and transferred to a nitrocellulose membrane by electroblotting. The membranes were blocked with 5% skim milk in TBS-T (20 mM Tris, 140 mM NaCl and 0.1% Tween-20) at room temperature for 1 h with shaking. […] The signal of specific protein bands was detected using the Luminata Forte Western HRP Substrate (Millipore Corp., Burlington, MA, USA) and recorded by film autoradiography. […]

[2] = MTT cytotoxicity assay in HEK293T/17 cells; assay type: cell-based; details: human, HEK293T/17 cells (human embryonic kidney), 24 h post-treatment
Protocol: Cytotoxicity of each compound towards cells for four selected cell lines in the range of 1 to 500 µM was evaluated using the MTT (3-(4,5-dimethylthiazol-2-yl)-2,5-diphenyltetrazolium bromide) assay at 24 h post-treatment, in parallel with control and vehicle-treated cells (0.1% dimethyl sulfoxide (DMSO)). The 50% cytotoxic concentration (CC50) values calculated from the dose-response curve (Supplementary Figures S2–S5) are shown in Table 1. Overall, a range of cytotoxicities were seen from the four compounds across the […]. The most cytotoxic combination was ZAD-1 and BHK-21 cells, while the least cytotoxic combination was andrographolide and BHK-21 cells (Table 1).
A549 cells were cultured in ninety-six-well tissue culture plates under standard conditions until the cells reached 90% confluence. The cell culture medium was removed and then cells were incubated with various concentrations of andrographolide (1–100 μM) diluted in complete medium with FBS prior to being cultured for 24 h under standard conditions before analysis using either the Vybrant MTT Cell proliferation assay kit (V13154, Invitrogen) or the alamarBlue (Thermo Fischer Scientific, Waltham, MA, USA) assay kit according to the manufacturers recommendations. Values were determined from 8 (MTT assay) or 3 (alamarBlue) independent replicates. Negative controls (only media and media with 0.1% DMSO) and positive controls (5% DMSO) were included. To determine cell number, cell cultures were trypsinized by the addition of 0.25% Trypsin/0.1% ethylelediaminetetraacetic acid (EDTA) for 3 min and then cell suspensions were diluted with 0.4% trypan blue solution. Cells were counted using a hemocytometer. Cell morphology was additionally observed under an inverted microscope after 24 h treatment with various concentrations of each compound.
Figu re S5. Cytotoxicity of ZAD -1 (A), ZA D-2 (B), ZA D-3 (C), and andro grapholide (D) to HEK293T/17 (human embryonic kidney) cells.
HEK293T/17 cells were incubated with various concentrations of each compound for 24 hrs followed by MTT cell viability assay. The experiment was undertaken independently in 4 replicates. DMSO at the same concentrations was used as a control.
10% ethanol, PBS, and milli- Q water were used as a positive control of cell death. […]

[3] = system: ZIKV; assay: ZIKV viral production in A549 cells by standard plaque assay; assay type: cell-based, Zika virus; details: for ZIKV viral production, concentration dependence: A549, MOI 5, 1 to 100 µM; for Selective Index (SI): ZIKV, CC50 and EC50 in A549 cells; for EC50: Zika virus, A549 cells, MOI 5, 24 h treatment post-infection, plaque assay, read-out: EC50 against ZIKV infection
Protocol: To confirm the effects of andrographolide and the andrographolide analogues on ZIKV infection, A549 cells were infected with ZIKV at MOI of 5 for 2 h, and subsequently treated with the compounds at concentrations of 10 and 25 μM or with vehicle for 24 h. The cells were harvested for determination of the percentage of infection by flow cytometry, while the supernatants were collected for determination of viral titer by standard plaque assay.
Thus, the EC50 values of ZAD-1 and andrographolide were determined against ZIKV and DENV 2. For ZIKV, A549 cells were infected with ZIKV at MOI 5 and after 2 h of infection, the cells were incubated with ZAD-1 or andrographolide at a range of concentrations (1 to 100 µM) for 24 h, after which the supernatants were collected for determination of EC50 values by standard plaque assay. Both ZAD-1 and andrographolide reduced viral production in a dose-dependent manner (Figure 4A). […] For DENV 2, HEK293T/17 cells were infected with DENV 2 at MOI 5 for 2 h and followed by incubation with ZAD-1 or andrographolide at a range of concentrations (1 to 100 µM) for 24 h. […] The EC50 value for andrographolide in DENV infection is consistent with our previous study undertaken in HepG2 and HeLa cells with the same virus.
DENV 2 (strain 16681) and ZIKV (strain SV0010/15) virus stocks were propagated in C6/36 cells previously described, and virus titers were determined by standard plaque assay as described previously using Vero cells for ZIKV and LLC-MK2 cells for DENV.
HEK293T/17 or A549 cells were cultured in six-well plates under standard conditions until the cells reached 80% confluence. HEK293T/17 cells were infected with DENV 2, while A549 cells were infected with ZIKV Thai strain at MOI 5 for 2 h at 37 °C and 5% CO2 in culture medium without FBS. Mock infection was undertaken in parallel. After the infection period, the medium was removed and replaced with complete medium (including FBS) containing 0.1% DMSO (no treatment control) or the appropriate concentration of each compound and cells were again incubated under standard conditions. At 24 h post-treatment, cells were harvested for determination of effects of compounds on percentage of infection and supernatant was collected for determination of viral productivity. All experiments were undertaken independently in triplicate with duplicate plaque assay.

SMILES	HSPA1A expression compared with the vehicle control [1]	CC50 at 24 h [2]	inhibitory effect on ZIKV infection, comparison among compounds ([3]; A549, MOI 5, 25 µM, 24 h)	ZIKV viral production, concentration dependence ([3]; 24 h)	Selective Index (SI) [3]	EC50 [3]
C=C1CC[C@@H]2[C@]3(C)COC(C)(C)O[C@@H]3CC[C@@]2(C)[C@@H]1C/C=C1/C(=O)OC[C@@H]1Oc1c(Cl)cc(Cl)c2ccc(C)nc12 [ZAD-1]	no significant difference from control	149 ± 40 µM	greatest inhibitory effect	dose-dependent	9.8	27.9 ± 1.7 µM
C=C1CC[C@@H]2[C@](C)(CO)[C@H](O)CC[C@@]2(C)[C@@H]1C/C=C1/C(=O)OC[C@H]1O [Andrographolide]	significantly increased	294 ± 96 µM		dose-dependent	6.6	31.8 ± 3.5 µM
